Where two headings read alike, the source gives them in different places.
Key:
[1] = tested on: methylphenidate induced stereotypies; test: Methylphenidate Antagonism; format: in vivo, mice; settings: for ED50: Mus musculus, ip, read-out: MePh antg. ED50, i.p., mice, 2 hours before methylphenidate 60 mg/kg s.c.; for MePh antg. ED50: i.p., mice, 2 hours before methylphenidate 60 mg/kg s.c.
Method: The experiments were made as described by Pedersen and Christensen (1972) Acta Pharmacol. et Toxicol. 31, 488-496.--Briefly, test compounds or saline were injected i.p. 2 hours before methylphenidate, 60 mg/kg s.c. 3 pairs of mice were used for each dose level. After methylphenidate injection the mice were placed in observation cages for one hour. The cages were placed on corrugated paper, the corrugation facing upwards.

[2] = tested on: 1-5-HTP-induced head shakes; test: 1-5-HTP-induced head shakes; format: in vivo; settings: rats, 1-5-HTP 75 mg/kg i.p. after citalopram; for ED50: Rattus norvegicus, sc, read-out: 1-5-HTP-antg. ED50; for 1-5-HTP-antg. ED50: s.c.
Method: The rats were pretreated subcutaneously with test compound or saline simultaneously with or 90 min before injection of citalopram (10 mg/kg s.c.).
Each group consisted of 4-12 rats.

5-HT2 receptors = biological target: T1, 5-HT2 receptors (Rattus norvegicus, UniProt P14842); test: 3H-spiroperidol binding to 5-HT2 receptors; settings: rat whole cortex, 0.5 nM 3H-spiroperidol, 0.3 μM sulpiride; read-out: 3H-SPI binding 5-HT2 IC50
T1 construct: Rat whole cortex was homogenized by an Ultra Turrax homogenizer; from tissue; host or cells: rat whole cerebral cortex, crude washed membranes
T1 sequence (P14842 whole entry): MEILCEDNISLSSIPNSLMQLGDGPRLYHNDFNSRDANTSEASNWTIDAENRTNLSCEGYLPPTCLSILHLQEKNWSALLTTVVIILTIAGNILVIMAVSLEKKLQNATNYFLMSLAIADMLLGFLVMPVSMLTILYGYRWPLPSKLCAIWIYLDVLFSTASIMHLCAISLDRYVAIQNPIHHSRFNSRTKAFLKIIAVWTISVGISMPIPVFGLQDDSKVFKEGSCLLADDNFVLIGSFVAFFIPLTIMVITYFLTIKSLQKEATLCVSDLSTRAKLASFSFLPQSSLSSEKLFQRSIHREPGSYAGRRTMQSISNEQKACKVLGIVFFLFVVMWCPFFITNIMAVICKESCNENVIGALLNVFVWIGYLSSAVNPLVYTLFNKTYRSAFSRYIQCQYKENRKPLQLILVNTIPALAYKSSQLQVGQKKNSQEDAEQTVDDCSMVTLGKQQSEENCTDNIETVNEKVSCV
Method: ^3 H-spiroperidol binding to 5-HT2 receptors.
Rat whole cortex was homogenized by an Ultra Turrax homogenizer in 100 vol. of 50 mM Tris buffer pH 7.7. The homogenate was centrifuged at 20,000 g for 10 minutes at 4° C. The pellet was rehomogenized in another volume of buffer and centrifuged as mentioned above. The final pellet was rehomogenized in 50 mM Tris buffer pH 7.7 containing 120 mM NaCl, 5 mM KCl, 2 mM CaCl2 and 1 mM MgCl2 (ion mix) in a volume corresponding to 12.5 mg original tissue per ml.
Test drugs were dissolved in water; ^3 H-spiroperidol (NEN, 28-30 Ci/mmol) was diluted in 3 μM sulpiride, and 800 μl membrane suspension were added. Final concentration of ligand and sulpiride were 0.5 nM and 0.3 μM, respectively. The samples were incubated at 37° C. for 10 min. The samples were then filtered under vacuum through Whatman GF/B glass-fiber filters. The tubes were then rinsed with 5 ml incubation buffer, which was poured on the filters. The filters were finally washed twice with 5 ml buffer and placed in counting vials. After addition of 5 ml scintillation fluid (Lumagel) radioactivity was estimated by liquid scintillation counting. Non-specific binding was obtained by adding Mianserin (1 μM) to separate samples. Each drug was tested at least twice at 5 concentrations in triplicate. IC50-values were determined from log concentration-response curves.--The presence of sulpiride excluded binding to dopamine D-2 receptors.

[3] = tested on: spontaneous hypertensive rats (SHR); test: Antihypertensive effect in spontaneous hypertensive rats (SHR); format: in vivo; settings: for change in vivo at 5 mg/kg / ED10: Rattus norvegicus, ip; for change in vivo at 5 mg/kg: 1 h; for peripheral or central action: in words; for Antihypertensive eff. SHR, max eff. in % of 5 mg/kg ip, DAP: diastolic pressure (DAP); for Antihypertensive eff. SHR, max eff. in % of 5 mg/kg ip, DAP / Antihypertensive eff. SHR, max eff. in % of 5 mg/kg ip, SAP: max change within one hour; for Antihypertensive eff. SHR, max eff. in % of 5 mg/kg ip, SAP: systolic pressure (SAP)
Method: Antihypertensive effect in spontaneous hypertensive rats (SHR)
The femoral artery of male SHR is cannulated in anaestesia for blood pressure recordings. After a stabilization period of 11/2 h after discontinuation of the anaesthesia initial blood pressure curves are recorded and the systolic (SAP)/diastolic (DAP) pressure determined (-20, -10, 0, min. p.i.) Test substance is injected i.p. and the pressure curve recorded for one hour. The change in SAP/DAP is calculated in percent at mean initial values at different times (10, 20, 30, 40, 50 and 60 minutes after injection). At least two SHR are used per dose level. The maximum change is used for estimation of the drug effect.

5-HT pressor responses = test: Antagonism to 5-HT pressor responses in pithed rats; format: in vivo; settings: for change in vivo at 0.02 mg/kg / ED50: Rattus norvegicus, iv; for change in vivo at 0.02 mg/kg: read-out: Effects on pressor response of 5-HT, % eff. of 0.02 mg/kg, pithed rats, 0.02 mg/kg, jugular vein; for ED50: read-out: Effects on pressor response of 5-HT, ED50, pithed rats, jugular vein
Method: (§1) The rat is anaesthetized with ether, tracheotomized, artificial respired and pithed. The knitting-needle is introduced through the right orbita into the cranial cavity and passed through foramen magnum into the spinal canal as far as possible. The spinal cord is destroyed by turning the needle. After vagotomi both carotides are ligated and a catheter placed in the right one for pressure recording. The rat is adrenalectomized. […] The initial and post medication mean pressor effect is calculated, and the mean pressor effect is calculated as % of the initial value. Two to five preparations are employed for each dose level. The ED50 is determined.

[4] = tested on: phenylephrine pressor responses; test: Antagonism to phenylephrine pressor responses in pithed rats; format: in vivo; settings: for ED50: Rattus norvegicus, iv, read-out: Effects on pressor response of Phenylephrine, ED50; for Phenylephr. antg./5-HT antg. (ratio): pithed rats, ratio of phenylephrine ED50 to 5-HT ED50
Method: as §1

[5] = read-out: Antihypertensive eff. SHR, max eff. in % of 5 mg/kg ip, DAP, 5 mg/kg ip, diastolic pressure (DAP), max change within one hour
[6] = read-out: Antihypertensive eff. SHR, max eff. in % of 5 mg/kg ip, SAP, 5 mg/kg ip, systolic pressure (SAP), max change within one hour
[7] = read-out: Antihypertensive eff. SHR, ED10 DAP
[8] = read-out: Antihypertensive eff. SHR, ED10 SAP

Compound | ED50 [1] | activity against methylphenidate induced stereotypies ([1]; in words) | ED50 [2] | IC50 (5-HT2 receptors) | change in vivo at 5 mg/kg [3, 5] | change in vivo at 5 mg/kg [3, 6] | peripheral or central action [3] | change in vivo at 0.02 mg/kg (5-HT pressor responses) | ED50 (5-HT pressor responses) | ED50 [4] | Phenylephr. antg./5-HT antg. (ratio) [4] | ED10 [3, 7] | ED10 [3, 8] | MePh antg. ED50 [1] | 1-5-HTP-antg. ED50 [2] | Antihypertensive eff. SHR, max eff. in % of 5 mg/kg ip, DAP ([3]; 5 mg/kg ip) | Antihypertensive eff. SHR, max eff. in % of 5 mg/kg ip, SAP ([3]; 5 mg/kg ip) | Effects on pressor response of 5-HT, % eff. of 0.02 mg/kg (5-HT pressor responses; pithed rats, jugular vein) | Effects on pressor response of 5-HT, ED50 (5-HT pressor responses; pithed rats, jugular vein) | Antihypertensive eff. SHR, max eff. in % of 5 mg/kg ip, SAP/DAP (inactive) ([3]; 5 mg/kg ip, SAP/DAP)
OCCN1CCN([C@@H]2C[C@@H](c3ccc(F)cc3)c3ccc(C(F)(F)F)cc32)CC1 (racemic) [Tefludazine, (±)trans-4-[3-(4-fluorophenyl)-6-(trifluoromethyl)-indan-1-yl]-1-piperazineethanol, reference compound] | 0.06 µmol/kg | high activity | 0.039 µmol/kg | 8.6 nM | -24% | -18% | marked central effects | -78% | 0.015 µmol/kg | 1.7 µmol/kg | 115 | – | – | – | – | – | – | – | – | –
O=C1NCCN1CCN1CCN([C@@H]2C[C@@H](c3ccc(F)cc3)c3ccccc32)CC1 (relative stereo) [compound 1] | > 98 µmol/kg | – | 1.3 µmol/kg | 25 nM | -43% | -33% | – | -68% | 0.024 µmol/kg | 3.13 µmol/kg | – | 4.2 µmol/kg | 5.9 µmol/kg | – | – | – | – | – | – | –
O=C1NCCN1CCN1CCN([C@@H]2C[C@@H](c3ccc(F)cc3)c3ccc(F)cc32)CC1 (relative stereo) [compound 2] | 79 µmol/kg | – | 0.13 µmol/kg | 6.7 nM | -19% | -14% | – | -89% | 0.017 µmol/kg | 2.55 µmol/kg | 150 | 4.1 µmol/kg | 9.2 µmol/kg | – | – | – | – | – | – | –
CN1CCN(CCN2CCN([C@@H]3C[C@@H](c4ccc(F)cc4)c4ccc(F)cc43)CC2)C1=O (relative stereo) [compound 3] | > 78 µmol/kg | – | 0.08 µmol/kg | 3.4 nM | -13% | -11% | – | -87% | 0.01 µmol/kg | 14 µmol/kg | 1400 | – | – | – | – | – | – | – | – | –
Cc1ccc2c(c1)[C@H](N1CCN(CCN3CCNC3=O)CC1)C[C@H]2c1ccc(F)cc1 (relative stereo) [compound 4, Trans-1-[3-(4-fluorophenyl)-6-methylindan-1-yl]-4-[2-(2-imidazolidinon-1-yl)ethyl]piperazine] | 27 µmol/kg | – | 0.13 µmol/kg | 23 nM | -32% | -27% | – | -73% | 0.017 µmol/kg | 2.02 µmol/kg | 119 | 2.4 µmol/kg | 3.3 µmol/kg | – | – | – | – | – | – | –
Cc1ccc2c(c1)[C@H](N1CCN(CCN3CCOC3=O)CC1)C[C@H]2c1ccc(F)cc1 (relative stereo) [compound 9] | 29 µmol/kg | – | 0.45 µmol/kg | 21 nM | -41% | -32% | – | -73% | 0.02 µmol/kg | 1.51 µmol/kg | 76 | 3.5 µmol/kg | 4.5 µmol/kg | – | – | – | – | – | – | –
CSc1ccc2c(c1)[C@H](N1CCN(CCN3CCOC3=O)CC1)C[C@H]2c1ccc(F)cc1 (relative stereo) [compound 10, Trans-1-[3-(4-fluorophenyl)-6-methylthioindan-1-yl]-4-[2-(2-oxazolidinon-3-yl)ethyl]piperazine] | > 76 µmol/kg | – | 2.4 µmol/kg | 6.6 nM | -22% | -14% | – | -57% | 0.034 µmol/kg | 9.4 µmol/kg | 276 | – | – | – | – | – | – | – | – | –
O=C1NCCN1CCCN1CCN([C@@H]2C[C@@H](c3ccc(F)cc3)c3ccc(F)cc32)CC1 (relative stereo) [compound 14] | 56 µmol/kg | – | 2 µmol/kg | 6.3 nM | -19% | -12% | mainly possess periferal action | -68% | 0.031 µmol/kg | 2.68 µmol/kg | 86 | – | – | – | – | – | – | – | – | –
Fc1ccc([C@@H]2C[C@@H](N3CCN(CCN4CCNC4=S)CC3)c3cc(F)ccc32)cc1 (relative stereo) [compound 24, Trans-1-[3-(4-fluorophenyl)-6-fluoroindan-1-yl]-4-[2-(2-imidazolidinthion-1-yl)ethyl]piperazine] | 25 µmol/kg | – | 0.13 µmol/kg | 5.2 nM | -20% | -10% | – | -88% | 0.01 µmol/kg | 3.7 µmol/kg | 370 | – | – | – | – | – | – | – | – | –
Fc1ccc([C@@H]2C[C@@H](N3CCN(CCN4CCNC4=S)CC3)c3cc(F)ccc32)cc1 (single isomer, unassigned) [+24] | 17 µmol/kg | – | 0.03 µmol/kg | 2.5 nM | -40% | -32% | – | -88% | – | – | – | – | – | – | – | – | – | – | – | –
O=C1NCCN1CCN1CCN([C@@H]2C[C@@H](c3ccc(F)cc3)c3ccccc32)CC1 (single isomer, unassigned) [-1] | – | – | – | 130 nM | – | – | – | – | – | – | – | – | – | > 97 µmol/kg | 8.9 µmol/kg | -11% | -3% | -11% | – | –
O=C1NCCN1CCN1CCN([C@@H]2C[C@@H](c3ccc(F)cc3)c3ccc(F)cc32)CC1 (single isomer, unassigned) [-2] | – | – | – | 320 nM | – | – | – | 2% | – | – | – | – | – | > 61 µmol/kg | 20 µmol/kg | +4% | +6% | – | 1.43 µmol/kg | –
CN1CCN(CCN2CCN([C@@H]3C[C@@H](c4ccc(F)cc4)c4ccc(F)cc43)CC2)C1=O (single isomer, unassigned) [-3] | – | – | – | 410 nM | – | – | – | – | – | – | – | – | – | > 91 µmol/kg | 45 µmol/kg | – | – | -6% | – | I
